Values quoted from earlier work as cited in US20030093057A1, “Methods and formulations for photodynamic therapy” (priority 2001, published 2003).
Read-outs that look alike come from different tables or passages of the source.

Tests used:
[1] = mouse skin
[2] = human skin

NCC(=O)CCC(=O)O [ALA, delta-aminolevulinic acid]
penetration of ALA into skin at increased temperature [1]: did not cause increased penetration
penetration of ALA into skin at increased temperature [2]: did not cause increased penetration
